This note sets out measurements from US20220378923A1, “BET DEGRADER” (KYOWA KIRIN CO., LTD., priority 2019, published 2022).

For the first assay, the system named is MYC mRNA expression in SU-DHL-4 cells. Description: Suppressive effect on MYC mRNA expression (Test Example 2). Conditions: Homo sapiens, test compound 100 nmol/L, 6 hours, qRT-PCR corrected by ACTB, GAPDH, HPRT1, read-out: Suppression Rate of MYC mRNA Expression (%). The assay is classed as cell-based, human. Summed up: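 SU-DHL-4 cells were treated for 6 h at 37 °C with compound (0.1% DMSO final). MYC mRNA was measured by TaqMan qRT-PCR and normalised to the geometric mean of ACTB, GAPDH and HPRT1. Suppression was calculated relative to untreated wells.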
(Real-time PCR tracks product formation cycle by cycle.)
With `CCC(=O)N1c2ccccc2[C@H](NCc2ccc(C(=O)N3CC(C(=O)Nc4ccc(N[C@@H]5C[C@H](C)N(C(=O)CC)c6ccccc65)cc4)C3)cc2)C[C@@H]1C` (relative stereo) [Compound 10g, 1-(4-((((2S*,4R*)-2-Methyl-1-propionyl-1,2,3,4-tetrahydroquinolin-4-yl)amino)methyl)benzoyl)-N-(4-(((2S,4R)-2-methyl-1-propionyl-1,2,3,4-tetrahydroquinolin-4-yl)amino)phenyl)azetidine-3-carboxamide], the inhibition at 0.1 µM was 97.2%.

As to `Cc1sc2c(c1C)C(c1ccc(C(=O)NCCCNC(=O)c3ccc(C4=N[C@@H](CC(=O)OC(C)(C)C)c5nnc(C)n5-c5sc(C)c(C)c54)cc3)cc1)=N[C@@H](CC(=O)OC(C)(C)C)c1nnc(C)n1-2` [Compound 1b, Di-tert-butyl 2,2′-[(6S,6′S)-({[propane-1,3-diylbis(azanediyl)]bis(carbonyl)}bis(4,1-phenylene))bis(2,3,9-trimethyl-6H-thieno[3,2-f][1,2,4]triazolo[4,3-a][1,4]diazepine-4,6-diyl)]diacetate], the inhibition at 0.1 µM was 98.4%.

`CCC(=O)N1c2ccccc2[C@H](Nc2ccc(NC(=O)CNC(=O)Nc3ccc(C4=NCc5nnc(C)n5-c5sc(C)c(C)c54)cc3)cc2)C[C@@H]1C` [Compound 14f, N-(4-(((2S,4R)-2-Methyl-1-propionyl-1,2,3,4-tetrahydroquinolin-4-yl)amino)phenyl)-2-(3-(4-(2,3,9-trimethyl-6H-thieno[3,2-f][1,2,4]triazolo[4,3-a][1,4]diazepin-4-yl)phenyl)ureido)acetamide]: the inhibition at 0.1 µM turned out to be 97.3%.

For the compound `CCC(=O)N1c2ccccc2[C@H](Nc2ccc(NC(=O)CCCC(=O)Nc3ccc(Cn4cc(-c5c(C)noc5C)ccc4=O)cc3)cc2)C[C@@H]1C` [Compound 17a, N^1-(4-((5-(3,5-Dimethylisoxazol-4-yl)-2-oxopyridin-1(2H)-yl)methyl)phenyl)-N5-(4-(((2S,4R)-2-methyl-1-propionyl-1,2,3,4-tetrahydroquinolin-4-yl)amino)phenyl)glutaramide], the inhibition at 0.1 µM amounted to 96.2%.

The assay is the same for the next values; noted with them: test compound 100 nmol/L, 6 hours, qRT-PCR corrected by ACTB, GAPDH, HPRT1.
For `CCC(=O)N1c2ccccc2[C@H](Nc2ccc(NC(=O)C#CCNC(=O)C3CCC(N[C@@H]4C[C@H](C)N(C(=O)CC)c5ccccc54)CC3)cc2)C[C@@H]1C` (relative stereo) [Compound 8g, (1R,4r)-4-(((2S*,4R*)-2-Methyl-1-propionyl-1,2,3,4-tetrahydroquinolin-4-yl)amino)-N-(4-((4-(((2S,4R)-2-methyl-1-propionyl-1,2,3,4-tetrahydroquinolin-4-yl)amino)phenyl)amino)-4-oxobut-2-yn-1-yl)cyclohexane-1-carboxamide], the “Suppression Rate of MYC mRNA Expression (%)” value (“Suppression Rate … (%)” for short) was 96.6%.

Regarding `CCC(=O)N1c2ccccc2[C@H](Nc2ccc(C(=O)NCCCNC(=O)c3ccc(C4=N[C@@H](CC(=O)OCCCOC)c5nnc(C)n5-c5sc(C)c(C)c54)cc3)cc2)C[C@@H]1C` [Compound 13h, 3-Methoxypropyl 2-((S)-2,3,9-trimethyl-4-(4-((3-(4-(((2S,4R)-2-methyl-1-propionyl-1,2,3,4-tetrahydroquinolin-4-yl)amino)benzamide)propyl)carbamoyl)phenyl)-6H-thieno[3,2-f][1,2,4]triazolo[4,3-a][1,4]diazepin-6-yl)acetate], the “Suppression Rate … (%)” value is on record as 97.4%.

Regarding `Cc1sc2c(c1C)C(c1ccc(Cl)cc1)=N[C@@H](CC(=O)NCCOCCOCCOCCOCCOCCOCCOCCNC(=O)C[C@@H]1N=C(c3ccc(Cl)cc3)c3c(sc(C)c3C)-n3c(C)nnc31)c1nnc(C)n1-2` [compound 2, reference compound], the “Suppression Rate … (%)” value was determined as 57.7%.

Turning to `CCC(=O)N1c2ccccc2[C@H](Nc2ccc(NC(=O)CCCC(=O)NC3CCC(Cn4cc(-c5c(C)noc5C)ccc4=O)CC3)cc2)C[C@@H]1C` (stereo partly drawn) [Compound 16p, N^1-((1r,4r)-4-((5-(3,5-Dimethylisoxazol-4-yl)-2-oxopyridin-1(2H)-yl)methyl)cyclohexyl)-N5-(4-(((2S,4R)-2-methyl-1-propionyl-1,2,3,4-tetrahydroquinolin-4-yl)amino)phenyl)glutaramide], the “Suppression Rate … (%)” value amounted to 96.2%.
